Experimental data reported in patent US9867811B2, “Method of treating atherosclerosis in high triglyceride subjects” (NOVARTIS AG, priority 2011, dated 2018).

Assays:
CETP [1] = assay: Ex vivo CETP activity in plasma of hamsters (saline or Triton WR-1339 treated); details: hamster; for Inhibition of plasma CETP activity: saline group, 8 h after dose; for Extent of CETP inhibition reduced by, relative to the saline group (74% inhibition): 10 mg/kg oral; for Increase in plasma CETP activity: 3 h after administration
Experimental: Nine- to ten-week-old, male golden Syrian hamsters were purchased from Japan SLC Inc. (Shizuoka, Japan). Animals underwent a more than 1-week acclimation period under the following conditions: 8:00/20:00 light/dark cycle, room temperature 23±2° C. […] During this time, animals received filtered (0.5 μm) water and a standard chow diet ad libitum.
Whole blood samples were collected using a heparin-washed syringe (Heparin sodium injection “Ajinomoto”; Ajinomoto, Tokyo, Japan) from the abdominal vein by venipuncture under isoflurane (Abbott Japan Co. Ltd.) inhalant anesthesia. After centrifugation at 15,000 rpm for 10 min at 4° C., heparinized plasma was prepared and stored at −80° C. until use.
CETP activity (RFU/min) was defined as the change in fluorescence intensity from 30 to 90 min.
The effect of an acute increase of plasma triglycerides in vivo (acute increase in triglyceride-rich particles) on the ability of Torcetrapib to alter plasma CETP activity, triglyceride and total cholesterol levels was investigated. Torcetrapib at doses of 3, 10 or 30 mg/kg or vehicle was administered once by gavage to hamsters fed a standard chow diet.
Compound or vehicle was administered once by gavage to hamsters fed a standard chow diet.

[2] = Total cholesterol and triglyceride concentrations in hamster plasma; assay type: in vivo; details: for Increase in plasma total cholesterol / Increase in plasma triglycerides: 3 h after administration
Experimental: Nine- to ten-week-old, male golden Syrian hamsters were purchased from Japan SLC Inc. (Shizuoka, Japan). Animals underwent a more than 1-week acclimation period under the following conditions: 8:00/20:00 light/dark cycle, room temperature 23±2° C. (range), 55±15% (range) humidity. During this time, animals received filtered (0.5 μm) water and a standard chow diet ad libitum.
(§1) To induce an acute increase in plasma triglyceride levels, Triton WR-1339 (Cat. No. 35418-12, Nacalai Tesque Inc, Kyoto, Japan) was dissolved in saline (Otsuka Normal Saline, Otsuka Pharmaceuticals, Tokushima, Japan) at a concentration of 2.5 to 10% (w/w), and was intravenously administered at a volume of 2 mL/kg from the basilic vein under isoflurane (FORANE®, Abbott Japan Co. Ltd., Tokyo, Japan) inhalant anesthesia. Whole blood samples were collected using a heparin-washed syringe (Heparin sodium injection “Ajinomoto”; Ajinomoto, Tokyo, Japan) from the abdominal vein by venipuncture under isoflurane (Abbott Japan Co. Ltd.) inhalant anesthesia. After centrifugation at 15,000 rpm for 10 min at 4° C., heparinized plasma was prepared and stored at −80° C. until use.
Compounds (CETP inhibitors) were suspended in 0.5% methyl cellulose (Methyl cellulose 400 cP, Cat. No. 138-05072, Wako Pure Chemical Industries, Osaka, Japan) solution, which was used as a vehicle. Compound or vehicle (10 mL/kg) was administered once by oral gavage 5 h before administration of Triton WR-1339.
Cholesterol and triglyceride concentrations in plasma and serum were measured manually with kits (Cholesterol E-test, Cat. No. 439-17501, and Triglyceride E-test, Cat. No. 432-40201, Wako Pure Chemical, Osaka, Japan).

CETP [3] = assay: Ex vivo plasma CETP activity assay with exogenously added compound (maximum inhibition); assay type: biochemical; details: 10 μM, hamster plasma (80% plasma)
Experimental: Plasma CETP activity ex vivo was determined as followed: 50 μL of hamster plasma (final 80% plasma) was mixed with 10 μL of donor solution diluted with assay buffer composed of 50 mM Tris-HCl (pH7.4) containing 150 mM NaCl and 2 mM EDTA in a 96-well half area black flat bottom plate (Cat. No. 3686, Corning, Corning, N.Y.). Fluorescence intensity was measured every 15 min at an excitation wave length of 485 nm and an emission wavelength of 535 nm for 120 min at 37° C. using ARVO SX+L (PerkinElmer, Wellesley, Mass.). CETP activity (RFU/min) was defined as the change in fluorescence intensity from 30 to 90 min.

CETP [4] = assay: Plasma CETP concentrations (ELISA) in hamsters; assay type: in vivo; details: hamster, Triton WR-1339 i.v., any dose
Experimental: as §1
Plasma CETP concentrations were measured using an enzyme-linked […] assay (ELISA) kit (Cat No. 278181, Daiichi Pure Chemicals, Tokyo, Japan). Recombinant human CETP protein was used as a standard. Hamster plasma was diluted 250-fold by the dilution buffer in the kit, and then CETP concentration was measured according to the manufacturer's protocol.

[5] = HPLC lipoprotein analysis in hamster plasma; assay type: in vivo
Experimental: as §1
An HPLC-size exclusion chromatography system with an on-line enzymatic dual detection system for lipids has been used for lipoprotein analysis. Plasma samples were diluted (5-fold) with saline after filtration (0.45 μm, Millipore Co, Cat. No. UFC30HV00) and injected into the HPLC system at a volume of 100 μL (as 20 μL of plasma), every 95 min, using an auto-sampler. Plasma lipoproteins were separated using a single Superose 6 column and filtered phosphate buffered saline (0.45 μm, Millipore Co., Bedford, Mass., Cat. No. SJHVM4710; PBS, Dainippon Pharmaceutical, Osaka, Japan Cat. No. 28-103-05 FN) at a flow rate of 0.5 mL/min. Each enzymatic reagent was pumped at a flow rate of 0.25 mL/min. Both enzymatic reactions proceeded at 37° C. in a reactor coil (Teflon tube, 15 m×0.4 mm id) in the column oven. The color developed after the enzyme reaction was measured at 580 nm, and the electric signal was monitored (every 0.5 second).
A control pooled EDTA-plasma sample was used to standardize the cholesterol and phospholipid levels in lipoproteins. Cholesterol and phospholipid levels in the control plasma were measured manually with kits (Cholesterol E-test, Cat. No. 439-17501, and Phospholipid C-test, Cat. No. 433-36201, respectively, Wako Pure Chemical Industries), and the concentrations were 121.8 and 216.8 mg/dL, respectively. Concentrations of VLDL, LDL, and HDL-cholesterol and -phospholipid levels were calculated using chromatogram areas observed for control hamster plasma samples. With this methodology, the retention times of control hamster VLDL, LDL, and HDL were 18.5-24.0, 24.0-30.5, and 31.5-42.0 min, respectively.

Compound: CCOC(=O)N1c2ccc(C(F)(F)F)cc2[C@@H](N(Cc2cc(C(F)(F)F)cc(C(F)(F)F)c2)C(=O)OC)C[C@H]1CC [Torcetrapib]
- Differences between the saline and WR-1339 groups in the extent of CETP inhibition (CETP [1]; 3 mg/kg oral gavage): 5.5%
- Inhibition of plasma CETP activity (CETP [1]; 3 mg/kg oral gavage): 38%
- Differences between the saline and WR-1339 groups in the extent of CETP inhibition (CETP [1]; 10 mg/kg oral gavage): 13%
- Inhibition of plasma CETP activity (CETP [1]; 10 mg/kg oral gavage): 74%
- Extent of CETP inhibition reduced by, relative to the saline group (74% inhibition) (CETP [1]; Triton WR-1339 50 mg/kg i.v.): 44%
- Extent of CETP inhibition reduced by, relative to the saline group (74% inhibition) (CETP [1]; Triton WR-1339 100 mg/kg i.v.): 13%
- Differences between the saline and WR-1339 groups in the extent of CETP inhibition (CETP [1]; 30 mg/kg oral gavage (P<0.01)): 35%
- Inhibition of plasma CETP activity (CETP [1]; 30 mg/kg oral gavage): 88%
- Inhibition of CETP activity, lower dose group, Triton WR-1339 group (CETP [1]; oral gavage: Torcetrapib 5 mg/kg, Anacetrapib 1.5 mg/kg, Example 49 1.5 mg/kg, Example 8 0.75 mg/kg, Triton WR-1339 100 mg/kg i.v., not significant vs vehicle): 13%
- Inhibition of CETP activity, lower dose group, saline group (CETP [1]; oral gavage: Torcetrapib 5 mg/kg, Anacetrapib 1.5 mg/kg, Example 49 1.5 mg/kg, Example 8 0.75 mg/kg, saline i.v.): 60%
- Inhibition of CETP activity, higher dose group, Triton WR-1339 group (CETP [1]; oral gavage: Torcetrapib 10 mg/kg, Anacetrapib 3 mg/kg, Example 49 3 mg/kg, Example 8 1.5 mg/kg, Triton WR-1339 100 mg/kg i.v.): 8%
- Inhibition of CETP activity, higher dose group, saline group (CETP [1]; oral gavage: Torcetrapib 10 mg/kg, Anacetrapib 3 mg/kg, Example 49 3 mg/kg, Example 8 1.5 mg/kg, saline i.v.): 75%
- Effect on plasma triglycerides ([2]; Triton WR-1339 treatment groups): did not affect
- Effect on plasma triglyceride levels ([2]; saline group, 3 and 30 mg/kg oral doses): slightly, but significantly, lowered
- Effect on total cholesterol levels ([2]; saline or Triton WR-1339 groups): not changed
- Maximum inhibition of CETP activity, compound exogenously added, Triton WR-1339 group (CETP [3]; Triton WR-1339 group): around 75%
- Maximum inhibition of CETP activity, compound exogenously added, saline group (CETP [3]; saline group): ~100%

Compound: Triton WR-1339
- Increase in plasma CETP activity (CETP [1]; Triton WR-1339 50 mg/kg i.v.): 1.7 fold
- Increase in plasma CETP activity (CETP [1]; Triton WR-1339 100 mg/kg i.v.): 3.7 fold
- Increase in plasma total cholesterol ([2]; Triton WR-1339 50 mg/kg i.v.): 1.2 fold
- Increase in plasma triglycerides ([2]; Triton WR-1339 50 mg/kg i.v.): 2.0 fold
- Increase in plasma total cholesterol ([2]; Triton WR-1339 100 mg/kg i.v.): 1.4 fold
- Increase in plasma triglycerides ([2]; Triton WR-1339 100 mg/kg i.v.): 4.0 fold
- Time of maximum increase in triglyceride levels after administration ([2]; Triton WR-1339 50, 100 or 200 mg/kg i.v.): 8 h
- Effect on plasma CETP concentrations (CETP [4]): did not significantly affect
- Effect on HDL-cholesterol ([5]; Triton WR-1339 50 mg/kg i.v.): not changed
- Effect on HDL-cholesterol ([5]; Triton WR-1339 100 mg/kg i.v.): reduced
- Effect on LDL-cholesterol ([5]; Triton WR-1339 i.v.): reduced
- Effect on cholesterol content of VLDL ([5]; Triton WR-1339 i.v. compared to saline group): increased
